Consider 33 compounds from ChEMBL document CHEMBL4706616, “Design, synthesis, and evaluation of substituted 2-acylamide-1,3-benzo[d]zole analogues as agents against MDR- and XDR-MTB” (Eur J Med Chem, 2021).

In general, MIC refers to the smallest concentration in the dilution series that meets the test's criterion for growth inhibition.

Converted amounts (≈) assume the structure as drawn.

Assay [1] concerns Mycobacterium tuberculosis. Description: Antitubercular activity against isoniazid/rifampicin multidrug-resistant Mycobacterium tuberculosis FJ05120 clinical isolates assessed as bacterial growth inhibition by MABA. In kind it is functional.
The subject of assay [2] is Mycobacterium tuberculosis. Description: Antitubercular activity against isoniazid/rifampicin/streptomycin/capreomycin/ofloxacin extensively drug-resistant Mycobacterium tuberculosis FJ05195 clinical isolates assessed as bacterial growth inhibition by MABA. The class given is functional.

Regarding `Cc1nnsc1C(=O)Nc1nc2ccccc2o1`, the minimum inhibitory concentration (MIC) in assay [1] and in assay [2] was 0.48 µM (≈ 0.125 µg/mL) in each case.
Regarding `Cc1nnsc1C(=O)Nc1nc2cc(Cl)ccc2o1`, the MIC in assay [1] and in assay [2] was 1.7 µM (≈ 0.501 µg/mL) each time.
On to `Cc1nnsc1C(=O)Nc1nc2cc(N3CCOCC3)ccc2o1`, for which the MIC in assay [1] and in assay [2] was 23.2 µM (≈ 8 µg/mL) each time.
Consider `Cc1nnsc1C(=O)Nc1nc2c(ccc3cccnc32)o1`, for which the minimal inhibitory concentration (MIC) in assay [1] was 6.42 µM (≈ 2 µg/mL); in assay [2] it was 25.7 µM (≈ 8 µg/mL).
The corresponding values for `O=C(Nc1nc2ccccc2o1)c1ccccc1` are 537 µM (≈ 128 µg/mL) and 537 µM (≈ 128 µg/mL).
On the same counts, the results for `Cc1nnsc1C(=O)Nc1nc2ccc(Cl)cc2o1` are 0.42 µM (≈ 0.124 µg/mL) and 0.85 µM (≈ 0.251 µg/mL).
On to `Cc1nnsc1C(=O)Nc1nc2cc(C(C)(C)C)ccc2o1`, for which the minimal inhibitory concentration (MIC) in assay [1] and in assay [2] was 0.4 µM (≈ 0.127 µg/mL) throughout.
In the case of `Cc1nnsc1C(=O)Nc1nc2c(OCc3ccccn3)cccc2o1`, the minimal inhibitory concentration (MIC) in assay [1] came out at 2.72 µM (≈ 0.999 µg/mL); in assay [2], 5.44 µM (≈ 2 µg/mL).
The corresponding values for `CN[C@@H]1[C@H](O[C@H]2[C@H](O[C@H]3[C@H](O)[C@@H](O)[C@H](N=C(N)N)[C@@H](O)[C@@H]3N=C(N)N)O[C@@H](C)[C@]2(O)C=O)O[C@@H](CO)[C@H](O)[C@H]1O` [STREPTOMYCIN] are < 0.69 µM and 87.8 µM (≈ 51.1 µg/mL).
The corresponding values for `CC[C@@H](CO)NCCN[C@@H](CC)CO` [ETHAMBUTOL] are 4.89 µM (≈ 0.999 µg/mL) and 39.2 µM (≈ 8 µg/mL).
On the same counts, the results for `NNC(=O)c1ccncc1` [ISONIAZID] are 7.29 µM (≈ 1 µg/mL) and 29.2 µM (≈ 4 µg/mL).
On to `Cc1nnsc1C(=O)Nc1nc2c(-c3ccccn3)cccc2o1`, for which the figures for the MIC in assay [1] and in assay [2] were 23.7 µM (≈ 8 µg/mL) and 47.4 µM (≈ 16 µg/mL), respectively.
Turning to `Cc1nnsc1C(=O)Nc1nc2cc(-c3cnn(C)c3)ccc2o1`, the MIC was determined as 0.73 µM (≈ 0.248 µg/mL) in assay [1] and 1.47 µM (≈ 0.5 µg/mL) in assay [2].
Take `CO[C@H]1/C=C/O[C@@]2(C)Oc3c(C)c(O)c4c(O)c(c(/C=N/N5CCN(C)CC5)c(O)c4c3C2=O)NC(=O)/C(C)=C\C=C\[C@H](C)[C@H](O)[C@@H](C)[C@@H](O)[C@@H](C)[C@H](OC(C)=O)[C@@H]1C` [RIFAMPIN]: the MIC in assay [1] and in assay [2] was > 311 µM in each case.
As to `Cc1nnsc1C(=O)Nc1nc2ccccc2[nH]1`, the MIC in assay [1] and in assay [2] was 30.9 µM (≈ 8 µg/mL) in each case.
For the compound `Cc1nnsc1C(=O)Nc1nc2c(ccc3ccccc32)o1`, the MIC in assay [1] and in assay [2] was 103 µM (≈ 32 µg/mL) throughout.
Regarding `O=C(Nc1nc2ccccc2o1)c1ccc(Cl)s1`, the MIC in assay [1] and in assay [2] was 14.3 µM (≈ 4 µg/mL) throughout.
On to `COC(=O)c1ccc2oc(NC(=O)c3snnc3C)nc2c1`, for which the results for the MIC in assay [1] and in assay [2] were 1.57 µM (≈ 0.5 µg/mL) and 3.14 µM (≈ 1 µg/mL), respectively.
The corresponding values for `Cc1nnsc1C(=O)Nc1nc2ncccc2o1` are 3.83 µM (≈ 1 µg/mL) and 7.66 µM (≈ 2 µg/mL).
For `Cc1nnsc1C(=O)Nc1nc2cc(-c3cccnc3)ccc2o1`, the MIC was 1.48 µM (≈ 0.499 µg/mL) in assay [1] and 2.96 µM (≈ 0.999 µg/mL) in assay [2].
Consider `Cc1nnsc1C(=O)Nc1nc2c(Br)cccc2o1`, for which the MIC in assay [1] and in assay [2] was 0.74 µM (≈ 0.251 µg/mL) each time.
On to `O=C(Nc1nc2ccccc2o1)c1ccco1`, for which the MIC in assay [1] worked out at 70.1 µM (≈ 16 µg/mL); in assay [2], 35.1 µM (≈ 8 µg/mL).
For `Cc1nnsc1C(=O)Nc1nc2cc(Br)ccc2o1`, the MIC in assay [1] and in assay [2] was 1.47 µM (≈ 0.499 µg/mL) in each case.
For `Cc1nnsc1C(=O)Nc1nc2cc(-c3ccccn3)ccc2o1`, the minimum inhibitory concentration (MIC) in assay [1] and in assay [2] was 0.37 µM (≈ 0.125 µg/mL) each time.
In the case of `Cc1ccc2oc(NC(=O)c3snnc3C)nc2c1`, the MIC in assay [1] and in assay [2] was 7.29 µM (≈ 2 µg/mL) each time.
In the case of `Cc1nnsc1C(=O)Nc1nc2c(ccc3ncccc32)o1`, the minimal inhibitory concentration (MIC) in assay [1] and in assay [2] was 25.7 µM (≈ 8 µg/mL) each time.
Take `Cc1nnsc1C(=O)Nc1nc2c(Oc3ncccn3)cccc2o1`: the results for the minimum inhibitory concentration (MIC) in assay [1] and in assay [2] were 5.64 µM (≈ 2 µg/mL) and 2.82 µM (≈ 0.999 µg/mL), respectively.
On the same counts, the results for `Cc1nnsc1C(=O)Nc1nc2ccccc2s1` are 57.9 µM (≈ 16 µg/mL) and 57.9 µM (≈ 16 µg/mL).
On the same counts, the results for `Cc1nnsc1C(=O)Nc1nc2ccc(C(C)(C)C)cc2o1` are 6.32 µM (≈ 2 µg/mL) and 6.32 µM (≈ 2 µg/mL).
On the same counts, the results for `Cc1nnsc1C(=O)Nc1nc2cc(F)ccc2o1` are 0.45 µM (≈ 0.125 µg/mL) and 1.8 µM (≈ 0.501 µg/mL).
Take `Cc1nnsc1C(=O)Nc1nc2cc(-c3ccncc3)ccc2o1`: the values for the MIC in assay [1] and in assay [2] were 0.74 µM (≈ 0.25 µg/mL) and 1.48 µM (≈ 0.499 µg/mL), respectively.
Regarding `O=C(Nc1nc2ccccc2o1)c1cccs1`, the minimal inhibitory concentration (MIC) in assay [1] and in assay [2] was 32.8 µM (≈ 8 µg/mL) throughout.
On to `COC(=O)c1ccc(-c2ccc3oc(NC(=O)c4snnc4C)nc3c2)cc1`, for which the MIC in assay [1] and in assay [2] was 0.63 µM (≈ 0.248 µg/mL) throughout.
